Biological target: T1, glucocorticoid receptor (Homo sapiens, UniProt P04150)
T1 construct: expressed in transfected cells
T1 sequence (P04150 524-758 limits assumed): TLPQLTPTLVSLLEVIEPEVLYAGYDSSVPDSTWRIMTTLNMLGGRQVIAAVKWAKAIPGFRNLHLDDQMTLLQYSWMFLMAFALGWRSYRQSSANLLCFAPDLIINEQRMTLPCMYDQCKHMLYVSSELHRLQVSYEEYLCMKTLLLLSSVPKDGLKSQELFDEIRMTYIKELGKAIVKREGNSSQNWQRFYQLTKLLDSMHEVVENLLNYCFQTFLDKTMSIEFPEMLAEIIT
Experiment: Agonistic mode of action on the glucocorticoid receptor (CHO-Gal4/GR luciferase reporter cell line)
Type: cell-based
Conditions: range class observed in the agonistic assay or the antagonistic assay (CHO-Gal4/GR reporter cells); table does not say which mode applies per example
How it was run: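 CHO cells stably carrying GAL4 DBD–GR ligand-binding-domain fusion and GAL4-UAS firefly luciferase reporter, 5000 cells/well grown 24 h, then compounds added in Opti-MEM at 8 half-log concentrations from 10 μM to 0.003 μM (0.5% DMSO), quadruplicates. Agonist-induced luminescence read on FLIPR Tetra; EC50 calculated.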

Row | Structure (SMILES) | IC50 or EC50 (agonist or antagonist mode not specified) [nM]
1 | Cc1nnc2n1-c1c(cc(F)c(-c3cccc4c3ccn4S(C)(=O)=O)c1F)NC2(C)C [Example 22, 7,9-difluoro-1,4,4-trimethyl-8-(1-(methylsulfonyl)-1H-indol-4-yl)-4,5-dihydro-[1,2,4]triazolo[4,3-a]quinoxaline] | 100 to 1000
2 | CCc1c(-c2cccc3c2cnn3S(C)(=O)=O)c(F)cc2c1-n1c(C)nnc1C(C)(C)N2 [Example 51, 9-Ethyl-7-fluoro-1,4,4-trimethyl-8-(1-methylsulfonyl-1H-indazol-4-yl)-5H-[1,2,4]triazolo[4,3-a]quinoxaline] | 100 to 1000
3 | CCc1nnc2n1-c1c(cc(F)c(-c3cccc4c3cnn4C3CC3)c1C)NC2(C)C [Example 242, 8-(1-Cyclopropyl-1H-indazol-4-yl)-1-ethyl-7-fluoro-4,4,9-trimethyl-5H-[1,2,4]triazolo[4,3-a]quinoxaline] | 1000 to 15000
4 | Cc1cc2c(c(C)c1-c1cccc3c1ccn3CC(F)F)-n1c(C)nnc1C(C)(C)N2 [Example 324, 8-[1-(2,2-Difluoro-ethyl)-1H-indol-4-yl]-1,4,4,7,9-pentamethyl-5H-[1,2,4]triazolo[4,3-a]quinoxaline] | 100 to 1000
5 | Cc1c(-c2ccc(Cl)c3c2ccn3S(C)(=O)=O)c(F)cc2c1-n1c(C)nnc1C(C)(C)N2 [Example 525, 8-(7-Chloro-1-methylsulfonyl-1H-indol-4-yl)-7-fluoro-1,4,4,9-tetramethyl-5H-[1,2,4]triazolo [4,3-a]quinoxaline] | 100 to 1000
6 | Cc1c[nH]c2c(-c3ccc4c(c3C(F)(F)F)-n3c(C)nnc3C(C)(C)N4)cccc12 [Example 503, 1,4,4-Trimethyl-8-(3-methyl-1H-indol-7-yl)-9-(trifluoromethyl)-5H-[1,2,4]triazolo[4,3-a]quinoxaline] | 100 to 1000
7 | Cc1cc2c(c(F)c1-c1cccc3c1ccn3S(C)(=O)=O)-n1c(C)nnc1C(C)(C)N2 [Example 321, 9-Fluoro-1,4,4,7-tetramethyl-8-(1-methylsulfonyl-1H-indol-4-yl)-5H-[1,2,4]triazolo[4,3-a]quinoxaline] | 1000 to 15000
8 | Cc1nnc2n1-c1c(ccc(-c3cc(F)cc4c3ccn4C)c1C(F)(F)F)NC2(C)C [Example 522, 8-(6-Fluoro-1-methyl-1H-indol-4-yl)-1,4,4-trimethyl-9-(trifluoro-methyl)-5H-[1,2,4]triazolo[4,3-a] quinoxaline] | 100 to 1000
9 | CCc1c(-c2cc(F)cc3c2ccn3CCO)c(F)cc2c1-n1c(C)nnc1C(C)(C)N2 [Example 44, 2-(4-(9-ethyl-7-fluoro-1,4,4-trimethyl-4,5-dihydro-[1,2,4]triazolo[4,3-a]quinoxalin-8-yl)-6-fluoro-1H-indol-1-yl)ethanol] | 100 to 1000
10 | COc1c(-c2cc(F)cc3[nH]ccc23)c(F)cc2c1-n1c(C)nnc1C(C)(C)N2 [Example 468, 7-Fluoro-8-(6-fluoro-1H-indol-4-yl)-9-methoxy-1,4,4-trimethyl-5H-[1,2,4]triazolo[4,3-a]quinoxaline] | < 100
11 | Cc1c(-c2cc(F)cc3c(C)c[nH]c23)c(F)cc2c1-n1c(C)nnc1C(C)(C)N2 [Example 31, 7-fluoro-8-(5-fluoro-3-methyl-1H-indol-7-yl)-1,4,4,9-tetramethyl-4,5-dihydro-[1,2,4]triazolo[4,3-a]quinoxaline] | < 100
12 | Cc1nnc2n1-c1c(cc(F)c(-c3cccc4c3ccn4CCNC(=O)OC(C)(C)C)c1F)NC2(C)C [Example 228, N-[2-[4-(7,9-Difluoro-1,4,4-trimethyl-5H-[1,2,4]triazolo[4,3-a]quinoxalin-8-yl)-1H-indol-1-yl]-ethyl]-carbarmic acid tert-butyl ester] | 1000 to 15000
13 | COCCn1ccc2c(-c3c(OC)cc4c(c3C)-n3c(C)nnc3C(C)(C)N4)cccc21 [Example 344, 7-Methoxy-8-[1-(2-methoxy-ethyl)-1H-indol-4-yl]-1,4,4,9-tetramethyl-5H-[1,2,4]triazolo[4,3-a] quinoxaline] | 1000 to 15000
14 | Cc1c(-c2cc(F)cc3c2cnn3S(C)(=O)=O)c(F)cc2c1-n1c(C)nnc1C(C)(C)N2 [Example 279, 7-Fluoro-8-(6-fluoro-1-methylsulfonyl-1H-indazol-4-yl)-1,4,4,9-tetramethyl-5H-[1,2,4]triazolo[4,3-a]quinoxaline] | < 100
15 | COc1c(-c2cccc3[nH]ccc23)c(F)cc2c1-n1c(C)nnc1C(C)(C)N2 [Example 286, 7-Fluoro-8-(1H-indol-4-yl)-9-methoxy-1,4,4-trimethyl-5H-[1,2,4]triazolo[4,3-a]quinoxaline] | 100 to 1000

Further lines, results first:

Row | IC50 or EC50 (agonist or antagonist mode not specified) [nM] | Structure (SMILES)
16 | 1000 to 15000 | COCCn1ccc2c(-c3c(OC)cc4c(c3F)-n3c(C)nnc3C(C)(C)N4)cc(F)cc21 [Example 353, 9-Fluoro-8-[6-fluoro-1-(2-methoxy-ethyl)-1H-indol-4-yl]-7-methoxy-1,4,4-trimethyl-5H-[1,2,4]triazolo [4,3-a]quinoxaline]
17 | < 100 | Cc1nnc2n1-c1c(cc(F)c(-c3cccc4c3cnn4CC3CC3)c1F)NC2(C)C [Example 235, 8-[1-(Cyclopropyl-methyl)-1H-indazol-4-yl]-7,9-difluoro-1,4,4-trimethyl-5H-[1,2,4]triazolo[4,3-a]quinoxaline]
18 | 100 to 1000 | Cc1nnc2n1-c1c(ccc(-c3cc(F)cc4c3ccn4S(C)(=O)=O)c1C(F)(F)F)NC2(C)C [Example 499, 8-(6-Fluoro-1-methylsulfonyl-1H-indol-4-yl)-1,4,4-trimethyl-9-(trifluoromethyl)-5H-[1,2,4]triazolo[4,3-a]quinoxaline]
19 | 100 to 1000 | Cc1cc2c(c(F)c1-c1cccc3c(C)c[nH]c13)-n1c(C)nnc1C(C)(C)N2 [Example 359, 9-Fluoro-1,4,4,7-tetramethyl-8-(3-methyl-1H-indol-7-yl)-5H-[1,2,4]triazolo[4,3-a]quinoxaline]
20 | < 100 | Cc1cc(-c2c(F)cc3c(c2C)-n2c(C)nnc2C(C)(C)N3)c2ccn(S(C)(=O)=O)c2c1 [Example 493, 7-Fluoro-1,4,4,9-tetramethyl-8-(6-methyl-1-methylsulfonyl-1H-indol-4-yl)-5H-[1,2,4]triazolo[4,3-a] quinoxaline]
21 | 100 to 1000 | CCn1ncc2c(-c3c(F)cc4c(c3F)-n3c(C)nnc3C(C)(C)N4)cccc21 [Example 236, 8-(1-Ethyl-1H-indazol-4-yl)-7,9-difluoro-1,4,4-trimethyl-5H-[1,2,4]triazolo[4,3-a]quinoxaline]
22 | 100 to 1000 | Cc1c(-c2ccc(C#N)c3[nH]ccc23)c(F)cc2c1-n1c(C)nnc1C(C)(C)N2 [Example 534, 4-(7-Fluoro-1,4,4,9-tetramethyl-5H-[1,2,4]triazolo[4,3-a]quinoxalin-8-yl)-1H-indole-7-carbonitrile]
23 | < 100 | Cc1nnc2n1-c1c(cc(F)c(-c3cccc4[nH]c(C(F)(F)F)cc34)c1F)NC2(C)C [Example 225, 7,9-Difluoro-1,4,4-trimethyl-8-[2-(trifluoromethyl)-1H-indol-4-yl]-5H-[1,2,4]triazolo[4,3-a]quinoxaline]
24 | 100 to 1000 | Cc1c(-c2cc(C#N)cc3[nH]ccc23)c(F)cc2c1-n1c(C)nnc1C(C)(C)N2 [Example 494, 4-(7-Fluoro-1,4,4,9-tetramethyl-5H-[1,2,4]triazolo[4,3-a]quinoxalin-8-yl)-1H-indole-6-carbonitrile]
25 | 1000 to 15000 | COCCn1c(C(F)(F)F)cc2c(-c3c(OC(F)F)cc4c(c3F)-n3c(C)nnc3C(C)(C)N4)cccc21 [Example 259, 7-(Difluoro-methoxy)-9-fluoro-8-[1-(2-methoxy-ethyl)-2-(trifluoromethyl)-1H-indol-4-yl]-1,4,4-trimethyl-5H-[1,2,4]triazolo[4,3-a]quinoxaline]
26 | < 100 | Cc1c(-c2cc(F)cc3c2ccn3S(C)(=O)=O)ccc2c1-n1c(C)nnc1C(C)(C)N2 [Example 453, 8-(6-Fluoro-1-methylsulfonyl-1H-indol-4-yl)-1,4,4,9-tetramethyl-5H-[1,2,4]triazolo[4,3-a]quinoxaline]
27 | < 100 | Cc1nnc2n1-c1c(cc(F)c(-c3cc(F)cc4c3ccn4C)c1C(F)F)NC2(C)C [Example 521, 9-(Difluoro-methyl)-7-fluoro-8-(6-fluoro-1-methyl-1H-indol-4-yl)-1,4,4-trimethyl-5H-[1,2,4]triazolo [4,3-a]quinoxaline]
28 | < 100 | Cc1nnc2n1-c1c(cc(F)c(-c3cc(F)cc4[nH]ccc34)c1C(F)F)NC2(C)C [Example 466, 9-(Difluoro-methyl)-7-fluoro-8-(6-fluoro-1H-indol-4-yl)-1,4,4-trimethyl-5H-[1,2,4]triazolo [4,3-a]quinoxaline]
29 | 100 to 1000 | Cc1nnc2n1-c1c(cc(OC(F)F)c(-c3cccc4[nH]c(C(F)(F)F)cc34)c1F)NC2(C)C [Example 252, 7-(Difluoro-methoxy)-9-fluoro-1,4,4-trimethyl-8-[2-(trifluoromethyl)-1H-indol-4-yl]-5H-[1,2,4]triazolo[4,3-a]quinoxaline]
30 | 100 to 1000 | COCCn1ncc2c(-c3c(OC(F)(F)F)cc4c(c3C)-n3c(C)nnc3C(C)(C)N4)cc(F)cc21 [Example 480, 8-[6-Fluoro-1-(2-methoxy-ethyl)-1H-indazol-4-yl]-1,4,4,9-tetramethyl-7-(trifluoromethyloxy)-5H-[1,2,4]triazolo[4,3-a]quinoxaline]
